Source: patent US20090035784A1 (priority 2004, published 2009)
Entries after “also recorded” stand apart in the source; their conditions may differ. Like-named read-outs stand apart in the source and are kept apart here.

How the values were obtained:
Type in all cases: cell-based
NPC1L1 [1] = biological target: T1, NPC1L1 (Homo sapiens, UniProt Q9UHC9, T1073A)
T1 construct: expressed in transfected cells; host or cells: Huh7-derived cells; the L1 3+ line (NPC1L1-overexpressing clone 3) is proposed for screening
T1 sequence (Q9UHC9 22-1359 T1073A): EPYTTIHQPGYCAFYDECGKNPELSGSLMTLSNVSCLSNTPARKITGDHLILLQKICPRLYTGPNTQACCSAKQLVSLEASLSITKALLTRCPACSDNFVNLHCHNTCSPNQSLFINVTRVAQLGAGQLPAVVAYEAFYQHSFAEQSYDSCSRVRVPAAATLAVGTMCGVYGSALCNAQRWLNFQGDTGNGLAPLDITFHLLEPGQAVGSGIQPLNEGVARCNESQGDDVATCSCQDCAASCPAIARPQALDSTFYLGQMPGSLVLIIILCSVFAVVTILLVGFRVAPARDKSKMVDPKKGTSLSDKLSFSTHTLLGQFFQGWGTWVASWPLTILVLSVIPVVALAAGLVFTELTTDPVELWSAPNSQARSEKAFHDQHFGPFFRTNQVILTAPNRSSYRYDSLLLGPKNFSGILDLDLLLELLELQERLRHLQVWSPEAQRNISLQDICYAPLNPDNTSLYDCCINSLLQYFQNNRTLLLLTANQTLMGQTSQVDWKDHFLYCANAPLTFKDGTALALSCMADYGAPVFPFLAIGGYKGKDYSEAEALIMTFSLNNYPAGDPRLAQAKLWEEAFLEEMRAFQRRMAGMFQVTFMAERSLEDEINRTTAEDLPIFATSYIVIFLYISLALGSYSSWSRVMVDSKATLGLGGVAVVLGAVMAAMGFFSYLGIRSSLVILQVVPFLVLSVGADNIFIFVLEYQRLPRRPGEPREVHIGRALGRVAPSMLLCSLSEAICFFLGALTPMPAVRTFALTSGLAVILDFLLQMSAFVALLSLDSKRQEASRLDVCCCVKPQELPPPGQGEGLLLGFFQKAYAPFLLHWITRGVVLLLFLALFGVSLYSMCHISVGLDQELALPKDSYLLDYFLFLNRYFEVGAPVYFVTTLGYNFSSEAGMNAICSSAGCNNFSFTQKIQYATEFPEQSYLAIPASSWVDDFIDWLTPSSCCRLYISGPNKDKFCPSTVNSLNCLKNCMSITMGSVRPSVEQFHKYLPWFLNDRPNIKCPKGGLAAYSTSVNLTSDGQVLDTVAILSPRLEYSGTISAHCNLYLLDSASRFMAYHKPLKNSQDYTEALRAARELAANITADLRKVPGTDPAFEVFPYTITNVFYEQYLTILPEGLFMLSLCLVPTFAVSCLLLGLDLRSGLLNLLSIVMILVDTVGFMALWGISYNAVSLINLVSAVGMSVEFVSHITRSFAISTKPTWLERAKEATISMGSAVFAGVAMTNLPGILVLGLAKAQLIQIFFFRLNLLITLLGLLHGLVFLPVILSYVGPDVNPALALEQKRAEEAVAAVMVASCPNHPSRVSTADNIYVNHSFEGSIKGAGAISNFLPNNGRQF

NPC1L1 [2] = biological target: T1, NPC1L1; remark: listed apart in the source
NPC1 = biological target: T2, NPC1 (Homo sapiens, UniProt O15118); assay: Lysosomal cholesterol storage in normal human fibroblasts treated with inhibitor; conditions: normal human fibroblasts incubated overnight, fluorescent cholesterol probe, FIG. 6 and 7
T2 construct: endogenous in cells; host or cells: normal human fibroblasts
T2 sequence (O15118 23-1278): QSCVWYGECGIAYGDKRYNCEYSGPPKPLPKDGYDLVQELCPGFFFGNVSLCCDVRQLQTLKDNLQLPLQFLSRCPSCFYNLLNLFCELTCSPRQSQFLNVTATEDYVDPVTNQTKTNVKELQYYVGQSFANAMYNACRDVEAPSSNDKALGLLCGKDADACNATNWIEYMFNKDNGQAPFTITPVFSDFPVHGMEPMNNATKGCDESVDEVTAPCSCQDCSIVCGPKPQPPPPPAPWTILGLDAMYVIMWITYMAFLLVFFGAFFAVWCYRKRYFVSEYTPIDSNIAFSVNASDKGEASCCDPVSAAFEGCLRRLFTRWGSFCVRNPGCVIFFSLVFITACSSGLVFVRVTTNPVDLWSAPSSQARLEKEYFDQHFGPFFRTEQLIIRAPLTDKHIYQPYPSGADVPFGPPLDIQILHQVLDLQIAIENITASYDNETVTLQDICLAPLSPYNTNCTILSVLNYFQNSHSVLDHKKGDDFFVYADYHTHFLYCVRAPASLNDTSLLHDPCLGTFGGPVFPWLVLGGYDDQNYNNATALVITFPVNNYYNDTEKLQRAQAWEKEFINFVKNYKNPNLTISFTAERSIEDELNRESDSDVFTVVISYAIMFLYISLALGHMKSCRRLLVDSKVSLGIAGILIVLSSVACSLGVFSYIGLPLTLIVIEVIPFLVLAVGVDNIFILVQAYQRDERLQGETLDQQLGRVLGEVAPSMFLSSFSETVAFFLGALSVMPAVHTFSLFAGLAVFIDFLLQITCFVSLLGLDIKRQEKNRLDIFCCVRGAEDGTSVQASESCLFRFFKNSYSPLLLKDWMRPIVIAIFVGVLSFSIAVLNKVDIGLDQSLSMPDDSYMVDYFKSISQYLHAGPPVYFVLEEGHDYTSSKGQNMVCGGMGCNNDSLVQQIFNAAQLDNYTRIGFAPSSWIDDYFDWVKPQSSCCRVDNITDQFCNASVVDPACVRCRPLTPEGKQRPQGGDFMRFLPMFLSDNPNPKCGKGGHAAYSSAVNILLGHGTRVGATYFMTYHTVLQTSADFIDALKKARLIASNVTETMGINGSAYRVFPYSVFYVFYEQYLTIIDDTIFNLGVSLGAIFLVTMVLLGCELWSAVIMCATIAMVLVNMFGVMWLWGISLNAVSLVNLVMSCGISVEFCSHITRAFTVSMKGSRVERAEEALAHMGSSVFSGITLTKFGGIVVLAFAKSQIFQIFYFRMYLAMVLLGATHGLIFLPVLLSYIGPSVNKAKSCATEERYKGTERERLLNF

CC(Nc1ccccc1O)=C1C(=O)CSC1=O [3 {1-[(2-hydroxyphenyl)amino]ethylidene}-2,4(3H, 5H)-thiophenedione]
signal of NPC1L1 promoter upregulation (inhibition of the NPC1L1 protein) (NPC1L1 [1]): positive signal
identification as inhibitor of NPC1L1 (NPC1L1 [2]): NPC1L1 inhibitors have been identified

CC(=O)C1=C(Nc2ccccc2C)CCC1=O [2-acetyl-3-[(2-methylphenyl)amino]-2-cyclopenten-1-one]
signal of NPC1L1 promoter upregulation (inhibition of the NPC1L1 protein) (NPC1L1 [1]): positive signal
identification as inhibitor of NPC1L1 (NPC1L1 [2]): NPC1L1 inhibitors have been identified

CC1CCNCC1 [#2, 4-methylpiperidine]
NPC1 inhibition seen as lysosomal cholesterol build-up (NPC1): weaker NPC1 inhibitor

Cl.N#CC1(c2ccccc2)CCNCC1 [#1, 4-Phenyl-4-piperidinecarbonitrile Hydrochloride]
signal of NPC1L1 promoter upregulation (inhibition of the NPC1L1 protein) (NPC1L1 [1]): positive signal
identification as inhibitor of NPC1L1 (NPC1L1 [2]; Hydrochloride): NPC1L1 inhibitors have been identified; also recorded: identified as an inhibitor of NPC1L1
NPC1 inhibition seen as lysosomal cholesterol build-up (NPC1; hydrochloride): did not demonstrate any NPC1 inhibition
NPC1 inhibition seen as lysosomal cholesterol build-up (NPC1; listed as 4-cyano-4-phenylpiperidine, Hydrochloride): weaker NPC1 inhibitor

CC(=O)c1ccc(NC(=O)c2cccs2)cc1 [N-(4-acetylphenyl)-2-thiophenecarboxamide]
identification as inhibitor of NPC1L1 (NPC1L1 [2]): NPC1L1 inhibitors have been identified

COc1ccc(NC2=C(C)C(=O)CC2)cc1 [3-[(4-methoxyphenyl)amino]-2-methyl-2-cyclopenten-1-one]
identification as inhibitor of NPC1L1 (NPC1L1 [2]): NPC1L1 inhibitors have been identified

CC(Nc1ccccc1C)=C1C(=O)CSC1=O [3{1-[(2-methylphenyl)amino]ethylidene}-2,4(3H, 5H)-thiophenedione]
identification as inhibitor of NPC1L1 (NPC1L1 [2]): NPC1L1 inhibitors have been identified

COc1ccccc1NC1=C(C)C(=O)CC1 [3-[(2-methoxyphenyl)amino]-2-methyl-2-cyclopenten-1-one]
identification as inhibitor of NPC1L1 (NPC1L1 [2]): NPC1L1 inhibitors have been identified

CCCCN1CCCCC1C(=O)Nc1c(C)cccc1C (stereo not shown) [#7, 1-Butyl-N(2,6-diemethylphenyl)2 piperidine carboxamide]
signal of NPC1L1 promoter upregulation (inhibition of the NPC1L1 protein) (NPC1L1 [1]): positive signal
identification as inhibitor of NPC1L1 (NPC1L1 [2]): NPC1L1 inhibitors have been identified

O=C1[C@H](CC[C@H](O)c2ccc(F)cc2)[C@@H](c2ccc(O)cc2)N1c1ccc(F)cc1 [Ezetamibe, reference compound]
signal of NPC1L1 promoter upregulation (inhibition of the NPC1L1 protein) (NPC1L1 [1]): did not inhibit NPC1L1

CCCC(=O)C1(c2ccccc2)CCNCC1.Cl [#5, 4-butyryl-4-phenylpiperidine hydrochloride]
NPC1 inhibition seen as lysosomal cholesterol build-up (NPC1; hydrochloride): distinguishable lysosomes filled with cholesterol
NPC1 inhibition seen as lysosomal cholesterol build-up (NPC1; listed as 4-butyryl-4-phenylpiperidine, hydrochloride): NPC1 inhibitor

c1ccc2c(CN3CCNCC3)cccc2c1 [1-(1-naphthylmethyl)piperazine]
identification as inhibitor of NPC1L1 (NPC1L1 [2]): NPC1L1 inhibitors have been identified
